molecular target: T1, Sterol O-acyltransferase 2 (Homo sapiens, UniProt O75908); test: Inhibition of human ACAT2 expressed in Hi5 cells; parameters: species or system BTI-TN-5B1-4; settings: not given
T1 sequence (O75908 whole entry): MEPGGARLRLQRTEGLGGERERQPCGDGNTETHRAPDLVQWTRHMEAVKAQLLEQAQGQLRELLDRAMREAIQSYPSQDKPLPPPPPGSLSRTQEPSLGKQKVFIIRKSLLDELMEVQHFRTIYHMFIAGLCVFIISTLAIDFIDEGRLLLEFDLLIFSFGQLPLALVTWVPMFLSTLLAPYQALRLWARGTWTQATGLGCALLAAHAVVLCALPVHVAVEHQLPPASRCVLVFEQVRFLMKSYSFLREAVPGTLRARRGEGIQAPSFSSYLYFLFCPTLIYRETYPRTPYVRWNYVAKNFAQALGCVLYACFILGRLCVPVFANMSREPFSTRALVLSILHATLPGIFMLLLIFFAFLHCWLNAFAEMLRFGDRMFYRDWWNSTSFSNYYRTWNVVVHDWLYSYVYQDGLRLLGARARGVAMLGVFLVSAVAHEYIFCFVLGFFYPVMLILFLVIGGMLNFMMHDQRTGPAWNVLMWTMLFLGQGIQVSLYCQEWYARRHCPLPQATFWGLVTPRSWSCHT

Compound	IC50 [µM]
CC(C)=CC[C@@H](OC(=O)CC(C)(C)O)C1=CC(=O)c2c(O)ccc(O)c2C1=O [BETA-HYDROXYISOVALERYLSHIKONIN]	170
CC(C)=CC[C@@H](OC(=O)C(C)C)C1=CC(=O)c2c(O)ccc(O)c2C1=O [ISOBUTYLSHIKONIN]	57.5
CC(C)=CC[C@@H](OC(=O)c1ccccc1)C1=CC(=O)c2c(O)ccc(O)c2C1=O	56.2
CC(C)=CC[C@@H](O)C1=CC(=O)c2c(O)ccc(O)c2C1=O [SHIKONIN]	138
CCC(=O)O[C@H](CC=C(C)C)C1=CC(=O)c2c(O)ccc(O)c2C1=O	28.7

Continued, values first:

IC50 [µM]	Compound
71.4	C=CCCC(=O)O[C@H](CC=C(C)C)C1=CC(=O)c2c(O)ccc(O)c2C1=O
112	CC(=O)O[C@H](CC=C(C)C)C1=CC(=O)c2c(O)ccc(O)c2C1=O [ACETYLSHIKONIN]
84.5	CCCCC(=O)O[C@H](CC=C(C)C)C1=CC(=O)c2c(O)ccc(O)c2C1=O
49.6	CCCC(=O)O[C@H](CC=C(C)C)C1=CC(=O)c2c(O)ccc(O)c2C1=O

molecular target: T2, Sterol O-acyltransferase 1 (Homo sapiens, UniProt P35610); test: Inhibition of human ACAT1 expressed in Hi5 cells; parameters: species or system BTI-TN-5B1-4; settings: not given
T2 sequence (P35610 whole entry): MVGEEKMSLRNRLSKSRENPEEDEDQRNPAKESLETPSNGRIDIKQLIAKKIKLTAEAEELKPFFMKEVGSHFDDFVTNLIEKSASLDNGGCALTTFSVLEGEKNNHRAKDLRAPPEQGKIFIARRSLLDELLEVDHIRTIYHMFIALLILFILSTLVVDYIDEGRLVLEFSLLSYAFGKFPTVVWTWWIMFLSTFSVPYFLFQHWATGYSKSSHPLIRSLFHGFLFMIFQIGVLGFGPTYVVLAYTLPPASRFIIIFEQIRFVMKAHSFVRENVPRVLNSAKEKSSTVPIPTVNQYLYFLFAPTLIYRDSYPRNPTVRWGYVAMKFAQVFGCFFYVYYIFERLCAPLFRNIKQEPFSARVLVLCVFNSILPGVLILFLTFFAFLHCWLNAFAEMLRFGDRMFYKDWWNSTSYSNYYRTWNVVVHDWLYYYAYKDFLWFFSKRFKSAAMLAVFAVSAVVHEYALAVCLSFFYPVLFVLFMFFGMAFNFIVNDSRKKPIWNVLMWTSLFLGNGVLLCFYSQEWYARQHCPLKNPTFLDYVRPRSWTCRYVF

IC50 [µM]	Compound
13.8	CC(C)=CC[C@@H](OC(=O)CC(C)C)C1=CC(=O)c2c(O)ccc(O)c2C1=O

molecular target: T2, Sterol O-acyltransferase 1; test: Inhibition of human ACAT1 expressed in AC29 cells by cell-based fluorescent assay system; settings: not given

IC50 [µM]	Compound
0.6	CC(C)=CC[C@@H](OC(=O)CC(C)C)C1=CC(=O)c2c(O)ccc(O)c2C1=O

molecular target: T3, Sterol O-acyltransferase 1 (Homo sapiens) (UniProt P35610); test: Inhibition of human ACAT1 expressed in Hi5 cells at 120 uM; settings: BTI-TN-5B1-4
T3 sequence (whole entry): T2 sequence (P35610 whole entry)

inhibition [%]	Compound
32	CC(C)=CC[C@@H](OC(=O)C(C)C)C1=CC(=O)c2c(O)ccc(O)c2C1=O [ISOBUTYLSHIKONIN]

— ChEMBL document CHEMBL1139051, “Human ACAT inhibitory effects of shikonin derivatives from Lithospermum erythrorhizon” (Bioorg Med Chem Lett, 2007)
